Experimental findings from the METLIN SMRT retention time set (Domingo-Almenara et al. 2019) are described below.

A short description of this series: gradient 5% acetonitrile 3 min, to 50% in 2 min, to 85% in 15 min, held 3 min, 100 µL/min. The following applies: column: Zorbax Extend-C18 2.1 x 50 mm; eluents: water / acetonitrile, 0.1% formic acid. An outline of the steps: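 A Zorbax Extend-C18 column (2.1 × 50 mm, 1.8 μm) run at 100 μL/min with water and acetonitrile, both containing 0.1% formic acid, separated mixtures of ~100 pure standards. The HPLC was coupled to a quadrupole time-of-flight mass spectrometer operated in positive and negative ionization mode, with dead and dwell volumes of 40 μL and 900 μL. Each retention time was taken from a computationally picked adduct peak that was then manually inspected.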
`CCc1ccc(-c2cc3c(=O)n(CC(=O)NCC4CCCN4CC)nc(C)n3n2)cc1` (stereo not given) had an RP-LC retention time of 713 s.

As to `O=C(NCC1CCCO1)c1nc(-c2ccnc(N3CCCCC3)c2)no1` (stereo not given), the RP-LC retention time was 654 s.

`O=C(c1ccc2c(c1)OCO2)N1CCC(F)(F)C(COCC2CC2)C1` (stereo not given): the RP-LC retention time worked out at 933 s.

In turn, `COc1ccc2c(c1)C1(CCN(S(=O)(=O)c3ccc(F)c(C)c3)C1)C(=O)N2` (stereo not given) gave an RP-LC retention time of 874 s.

On to `CC(=O)Nc1cc(C(=O)NCCC2=CCCCC2)c2ccc(C)nc2c1`, for which the RP-LC retention time was 652 s.

Regarding `CC(C)n1c(=O)sc2cc(S(=O)(=O)N3CCC(C(=O)NC4CCCCC4)CC3)ccc21`, the RP-LC retention time was found to be 935 s.

For `Cc1ccc(CNC(=O)C2(C)Cn3nc(C(=O)NCCN(C)C)cc3C(=O)N2C)cc1` (stereo not given), the RP-LC retention time worked out at 639 s.

`Cc1noc(COC2CCN(C(=O)c3ccc4ccccc4n3)CC2)n1` showed an RP-LC retention time of 707 s.

Compound `Cc1[nH]c(C(=O)N2CCC(CC(=O)NCc3ccccc3Cl)CC2)c(C)c1C(=O)OC(C)C` displayed an RP-LC retention time of 876 s.

Take `Cn1nc(N2CCCC(NS(=O)(=O)c3cccc(Cl)c3)C2)ccc1=O` (stereo not given): the RP-LC retention time was 775 s.

As for `O=C(Cn1nc(S(=O)(=O)c2ccc(Cl)cc2)ccc1=O)N1CCN(c2ccccc2F)CC1`, the RP-LC retention time was determined as 937 s.

Turning to `CCOc1ncccc1CNC(=O)Cc1ccsc1`, the RP-LC retention time worked out at 771 s.

`COc1cc(NC(=O)CN2C(=O)C(O)(c3ccccc3)c3ccccc32)cc(OC)c1` (stereo not given) showed an RP-LC retention time of 872 s.

Consider `O=C(CN1CCC(c2nc(-c3cccs3)no2)CC1)NCc1ccccc1`, for which the RP-LC retention time was 672 s.

`Cc1ccc(CNC(=O)C2(C)CCCN(C(=O)Nc3cc(C)cc(C)c3)C2)cc1` (stereo not given) showed an RP-LC retention time of 912 s.

The compound `CCCCNc1c(C(=O)OC)c(=O)[nH]c2ccc(F)cc12` returned an RP-LC retention time of 734 s.

The compound `COC(=O)c1cncc(C)c1` had an RP-LC retention time of 662 s.

Turning to `O=C(COc1ccccc1Cl)N1CCCCC1CCN1CCCC1` (stereo not given), the RP-LC retention time came out at 656 s.

In the case of `COc1ccc(-n2c(=O)c(C(=O)NCc3ccc(F)cc3F)c(O)c3cccnc32)cc1`, the RP-LC retention time was determined as 1170 s.

In the case of `CC1=C(C(=O)Nc2ccccc2C)C(c2ccc(Cl)cc2Cl)NC(=O)N1` (stereo not given), the RP-LC retention time is 704 s.

For `COc1ccc(-c2noc(C3CC(=O)N(c4ccc(C)cc4)C3)n2)cc1OC` (stereo not given), the RP-LC retention time was found to be 885 s.

`Cn1cnc2c(C(=O)N3CCC(c4ccccc4)C3)nn(-c3ccccc3)c2c1=O` (stereo not given) yielded an RP-LC retention time of 851 s.

As to `Cc1cccc2nnc(N3CCN(C(=O)c4ccncc4)CC3)n12`, the RP-LC retention time is 551 s.

`COc1ccc(-c2csc(Cc3nc(-c4ccc(C)cc4)no3)n2)cc1` gave an RP-LC retention time of 1240 s.

Take `CC1CCN(S(=O)(=O)c2ccc(-c3nnc(C4CC4)o3)o2)CC1`: the RP-LC retention time is 933 s.

On to `CC(C)c1nc2cccnc2n1CCN1CCN(C(=O)Nc2ccc(Br)cc2F)CC1`, for which the RP-LC retention time is 632 s.

Consider `CCOc1cc(=O)n2c(c1C(=O)Nc1ccc(C(N)=O)cc1)CCCC2`, for which the RP-LC retention time came to 584 s.

In the case of `COc1ccc(-c2c(NC(=O)c3cccs3)n(C)c3ccccc3c2=O)cc1`, the RP-LC retention time came out at 668 s.

In the case of `O=S(=O)(c1cccc2cccnc12)N1CCCn2nc(-c3ccncc3)cc2C1`, the RP-LC retention time was 610 s.

On to `Cc1cccc(-c2noc(Cn3nc(-c4ccccc4)ccc3=O)n2)c1`, for which the RP-LC retention time was 1060 s.

Regarding `Cn1cc(C(=O)NCc2ccccc2)c(S(=O)(=O)N2CCSCC2)n1`, the RP-LC retention time is 834 s.

Compound `O=C1Nc2ccccc2SC1C(=O)N1CCC(C(=O)N2CCN(c3ccccc3)CC2)CC1` (stereo not given) had an RP-LC retention time of 766 s.

In turn, `Cc1csc(-c2cn(CC(=O)NCc3cccc(C(F)(F)F)c3)cn2)n1` registered an RP-LC retention time of 716 s.

For `Cc1cccn2c(Nc3ccc4c(c3)OCCO4)c(-c3ccc(Cl)cc3)nc12`, the RP-LC retention time was 747 s.

Take `O=P(O)(O)c1cc(-c2ccccc2)oc1-c1ccccc1`: the RP-LC retention time came out at 852 s.

Compound `CCOc1cc(-c2noc(-c3nnn4c3COC(c3ccc(Cl)cc3)C4)n2)ccc1OC` (stereo not given) gave an RP-LC retention time of 1190 s.

In turn, `O=C(C1CCN(c2nnc(-c3ccccc3)o2)CC1)N1CCCCC1` yielded an RP-LC retention time of 760 s.

Consider `CC1=C(c2ccc(F)cc2)S(=O)(=O)N=C1N1CCCN(C(=O)Cc2ccsc2)CC1`, for which the RP-LC retention time is 812 s.

In the case of `COc1ccc(OC)c(CNC(=O)C2CCCN(c3nnc4c(Cl)cccn34)C2)c1` (stereo not given), the RP-LC retention time was found to be 722 s.

`Cc1cc(C)cc(C(=O)NC2CCN(c3ccccc3)C2=O)c1` (stereo not given): the RP-LC retention time came out at 862 s.

In turn, `CCn1cc(C2=CCN(C(=O)Nc3cc(Cl)ccc3C)CC2)c2cccnc21` yielded an RP-LC retention time of 999 s.

Compound `COc1ccc(NC(=O)c2nc(C(C)C)oc2C)cc1Cl` registered an RP-LC retention time of 1080 s.

Take `CC(=O)N(Cc1nn(C)c2c1CN(S(=O)(=O)Cc1ccccc1Cl)CC2)c1ccccc1`: the RP-LC retention time amounted to 835 s.

`O=C(NCCCN1CCOC(c2ccccc2)C1)NC1CCCCC1` (stereo not given) registered an RP-LC retention time of 584 s.

`O=C(C1CCN(S(=O)(=O)c2cc(-c3noc(C4CC4)n3)cs2)CC1)N1CCOCC1`: the RP-LC retention time amounted to 793 s.

Turning to `Cc1noc(-c2ccc(-n3ncc(C(=O)NC4CC4)c3C)nc2)n1`, the RP-LC retention time worked out at 709 s.

`CCCNC(=O)C1CCCN(c2nc3ncn(CC(=O)Nc4c(C)cc(C)cc4C)c(=O)c3s2)C1` (stereo not given) displayed an RP-LC retention time of 728 s.

Consider `COc1cc(NC(=O)c2cn(-c3cc(N(C)C)ncn3)cn2)cc(OC)c1`, for which the RP-LC retention time was found to be 809 s.

Compound `COc1ccc(N2CCN(CC(=O)Nc3ccc4c(c3)Cc3ccccc3-4)C2=O)cc1` had an RP-LC retention time of 915 s.

Compound `COc1ccc(CNC(=O)C2CCCN(c3ccc(=O)n(-c4cccc(Cl)c4)n3)C2)cc1OC` (stereo not given) gave an RP-LC retention time of 798 s.

Compound `CCCNC(=O)C(=O)NCc1n[nH]c(=O)c2ccccc12` returned an RP-LC retention time of 627 s.

Compound `Cc1cc(C(=O)N2CCCCCC2c2nnc(C)o2)on1` (stereo not given) had an RP-LC retention time of 669 s.

As to `CC(C)(Oc1ccc(Cl)cc1)C(=O)NCc1nnnn1C1CCCCC1`, the RP-LC retention time worked out at 945 s.

On to `CC(=O)Nc1ccc(-n2cnc(C(=O)NC(C)c3ccc(F)cc3)c2)nc1` (stereo not given), for which the RP-LC retention time worked out at 701 s.

`COc1ccc(C2CC(=O)N(c3ccccc3)C(=O)C2)cc1` showed an RP-LC retention time of 842 s.

As for `CCOc1ccc(-c2nc3ncccn3c2NCc2ccc(C)cc2)cc1OC`, the RP-LC retention time amounted to 773 s.

`CCS(=O)(=O)N1CCCC(c2nc(C(C)C)no2)CCNC(=O)CC1` (stereo not given) had an RP-LC retention time of 686 s.

As for `FC(F)(F)c1cccc(-c2cncc(N3CCN(c4ccccn4)CC3)n2)c1`, the RP-LC retention time stood at 740 s.

In turn, `COC(=O)c1ccc2c(=O)n(-c3cc(OC)cc(OC)c3)c(N3CCSCC3)nc2c1` displayed an RP-LC retention time of 983 s.

`CCc1noc(NC(C)=O)c1-c1ccc(OC)c(S(=O)(=O)Nc2cc(Cl)ccc2OC)c1` yielded an RP-LC retention time of 876 s.

`CCn1c(=O)c2ccccc2n(Cc2nc(-c3ccc(C)cc3)no2)c1=O` showed an RP-LC retention time of 1070 s.

As for `Cn1cccc1C(=O)C(=O)N1CCN(c2ccc(Cl)cc2)CC1`, the RP-LC retention time was determined as 904 s.

`COc1cc(OC)cc(C(=O)Nc2nc(-c3ccc4c(c3)NC(=O)CO4)cs2)c1`: the RP-LC retention time was 897 s.

In turn, `O=C1C(N2CCN(S(=O)(=O)c3ccccc3F)CC2)CCN1Cc1ccccn1` (stereo not given) showed an RP-LC retention time of 571 s.

For the compound `COCc1nc2cccnc2n1C1CCN(C(=O)Nc2ccc(Br)cc2)CC1`, the RP-LC retention time was 747 s.

In turn, `COc1ccc(C(=O)NCCc2cn3cccc(C)c3n2)c(OC)c1` returned an RP-LC retention time of 551 s.

`Cc1nnc2c(=O)n(CC(=O)N3CCN(c4ccccc4)CC3)c3cccnc3n12`: the RP-LC retention time was 682 s.

Turning to `Cc1cccc(NS(=O)(=O)c2cc(-c3[nH]ncc3C(=O)N(C)C)oc2C)c1C`, the RP-LC retention time worked out at 712 s.

Consider `COc1ccc(CC(=O)NCC(c2ccsc2)N2CCc3ccccc3C2)cc1OC` (stereo not given), for which the RP-LC retention time turned out to be 573 s.

Regarding `Cc1ccc(C)c(S(=O)(=O)Nc2ccc3scnc3c2)c1`, the RP-LC retention time stood at 776 s.

`Cc1cc(NC(=O)CN2C(=O)NC(c3ccc(Cl)cc3)C3=C2COC3=O)ccc1Br` (stereo not given) yielded an RP-LC retention time of 873 s.

Regarding `CC1CCCN(c2ncc(S(=O)(=O)c3ccc(C(C)C)cc3)c(N)n2)C1` (stereo not given), the RP-LC retention time was found to be 807 s.

Consider `CCCc1ccc(S(=O)(=O)N2CCC(c3noc(-c4cccc(OC)c4)n3)CC2)cc1`, for which the RP-LC retention time turned out to be 1280 s.

With `Cn1cc(C(=O)NCc2ccc(Cl)cc2)c(S(=O)(=O)N2CCSCC2)n1`, the RP-LC retention time came out at 909 s.

`COc1ccc(-c2ncc3c(n2)CCN(S(=O)(=O)c2ccc(F)c(C)c2)C3)cc1` came in with an RP-LC retention time of 1100 s.

As for `O=C(C1CCCC1)N1CCC(c2noc(-c3ccccc3)n2)C1` (stereo not given), the RP-LC retention time was found to be 924 s.

As to `COc1cc2c(c(O)c1OC)-c1c(cc(OC)c(OC)c1OC)CC(C)C(C)C2` (stereo not given), the RP-LC retention time amounted to 1080 s.

Compound `Cc1cc(C)nc(Nc2nc(-c3ccccc3)c(CC(=O)O)s2)n1` returned an RP-LC retention time of 710 s.

In turn, `O=C(NC1CC1)C1CCCN(c2ccc(Sc3ccc(Br)cc3)nn2)C1` (stereo not given) had an RP-LC retention time of 785 s.

The compound `Cn1ccc2cc(S(=O)(=O)N3CCC(C(=O)NCc4ccccn4)CC3)ccc21` came in with an RP-LC retention time of 641 s.
